# Values of other authors as cited in patent US9700504B2, “Composition and method for an intradermal hair growth solution” (priority 2012, dated 2017).
# Test system: human hair follicles
# Settings: ex vivo human hair follicles and cultured dermal papilla cells
substance,measurement,value
L-alanyl-L-histidyl-L-lysine-Cu^2+ [AHK-Cu],effect on human hair growth,promotes the growth of human hair follicles
